One assay deals with BRD4 (BDI_K57-E168) (Homo sapiens (Human), UniProt O60885). As to the kind of experiment: TR-FRET bromodomain binding assay, BRD4 first bromodomain. The following applies: His-tagged BD1, Alexa647-labeled probe 100 nM. The essentials:
(§1)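 Read-out: TR-FRET ratio after 1 h at room temperature, normalized to controls and fitted for IC50, then converted to Ki. Reaction held 8 nM His-tagged domain, 1 nM Eu-anti-His antibody, Alexa647 probe (BDI 100 nM; BDII 30 nM) and test compound in 2% DMSO.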

The target in the next assay is BRD4 (BDII_E352-M457) (Homo sapiens (Human), UniProt O60885). The assay can be described thus: TR-FRET bromodomain binding assay, BRD4 second bromodomain. The following applies: His-tagged BD2, Alexa647-labeled probe 30 nM. The essentials: as §1
The test system of assay [1] is LPS induced IL-6 (Interleukin-6) production. As to the kind of experiment: LPS (lipopolysaccharide) induced IL-6 production mouse assay. The assay is classed as in vivo. As to conditions: CD-1 female mice, oral administration one hour before LPS 2.5 mg/kg intraperitoneal, serum 2 hours after LPS; p value less than 0.05. On the procedure:
Example 2 was assayed for its ability to inhibit LPS (lipopolysaccharide) induced IL-6 (Interleukin-6) production in mice. CD-1 female mice (Charles River Laboratories, 5 per group) received an intraperitoneal challenge of lipopolysaccharide (2.5 mg/kg, L2630 E. coli 0111:B4) one hour after oral administration of compound or compound vehicle. Mice were euthanized 2 hours after lipopolysaccharide injection, blood was removed by cardiac puncture, and then the serum harvested from the blood samples was frozen at −80 OC. On the day of the assay the serum samples were brought to room temperature and then diluted 1:20 in phosphate-buffered saline containing 2% bovine serum albumin. Interleukin-6 measurements were performed using a cytokine assay from Meso Scale Discovery (Gaithersburg, Md.) for mouse serum analysis according to the manufacturer's protocol and read on a SECTOR Imager 6000 (Meso Scale Discovery, Gaithersburg, Md.) instrument. Statistical analysis was performed using Prism software (version 5.0) incorporating Dunnett's one way ANOVA. The IL-6 mean and standard deviation of the group of vehicle treated animals were compared with the IL-6 mean and standard deviation of the group treated with drug. A p value <0.05 means that there is less than a 5% probability that the mean values in the two groups are equal.

Assay [2] concerns breast cancer cell line MX-1. As to the kind of experiment: MX-1 cell line proliferation assay, Method A. The assay is classed as cell-based. The following applies: MX-1 cells, 96-well, 72 hours, Cell Titer Glo; read-out: Cellular proliferation: EC50 Method A. On the procedure: (§2) The impact of compounds of the Examples on cancer cell proliferation was determined using the breast cancer cell line MX-1 (ATCC) in a 3-day proliferation assay and the data are reported in Table 1.
For compound testing, MX-1 cells were plated in 96-well black bottom plates at a density of 5000 cells/well in 90 μL of culture media and incubated at 370 overnight to allow cell adhesion and spreading. Compound dilution series were prepared in DMSO via a 3-fold serial dilution from 3 mM to 0.1 μM. The DMSO dilution series were then diluted 1:100 in phosphate buffered saline, and 10 μL of the resulted solution were added to the appropriate wells of the MX-1 cell plate. The final compound concentrations in the wells were 3, 1, 0.3, 0.1, 0.03, 0.01, 0.003, 0.001, 0.0003 and 0.0001 μM.
Luminescence readings from the Cell Titer Glo assay were normalized to the DMSO treated cells and analyzed using the GraphPad Prism software with sigmoidal curve fitting to obtain EC50s. The minimum significant ratio (MSR) was determined to evaluate assay reproducibility (Eastwood et al., (2006) J Biomol Screen, 11: 253-261).

In assay [3] the test system is breast cancer cell line MX-1. The assay can be described thus: MX-1 cell line proliferation assay, Method B. As to conditions: Homo sapiens, MX1; MX-1 cells, 384-well, 72 hours, Cell Titer Glo; read-out: Cellular proliferation: EC50 Method B. The assay is classed as cell-based. As to the method: as §2
Method B: MX-1 cells were maintained in RPMI 1640 medium (Sigma) supplemented with 10% FBS at 37 C.° and an atmosphere of 5% CO2. For compound testing, MX-1 cells were plated in 384-well white with clear, flat bottom plates at a density of 750 cells/well in 25 μL of culture media and incubated at 370 overnight to allow cell adhesion and spreading. Ten point compound dilution series were prepared in DMSO via a 3-fold serial dilution from either […] or 1 μM stock and added directly to the appropriate wells of the MX-1 cell plate by an ECHO liquid handler (Labcyte). The final compound concentrations in the wells were 10, 3.25, 1, 0.25, 0.124, 0.040, 0.0124, 0.0031, 0.0015 and 0.0005 μM or 1, 0.33, 0.1, 0.025, 0.0124, 0.004, 0.0012, 0.0003, 0.00015, 0.00005 μM, depending on the concentration of the compound stock solution.
Luminescence readings from the Cell Titer Glo assay were normalized to the DMSO treated cells and analyzed using Accelrys Assay Explorer 3.3 software with sigmoidal curve fitting to obtain ECsos. The minimum significant ratio (MSR) was determined to evaluate assay reproducibility (Eastwood et al., (2006) J Biomol Screen, 11: 253-261). The overall MSR was determined to be 3.3 and a moving MSR (last six run MSR overtime) has averaged

Turning to `CCS(=O)(=O)Nc1cc(-c2cn(C)c(=O)c3[nH]ccc23)c(Oc2ccc(F)cc2F)cc1CN(C)C` [Example 2, N-[4-(2,4-difluorophenoxy)-2-[(dimethylamino)methyl]-5-(6-methyl-7-oxo-6,7-dihydro-1H-pyrrolo[2,3-c]pyridin-4-yl)phenyl]ethanesulfonamide], the Ki at BRD4 (BDI_K57-E168) was determined as 57 nM; on BRD4 (BDII_E352-M457) it was 4 nM. The “inhibition of LPS induced IL-6 production” value in assay [1] is on record as 45%.
For the compound `COc1ccc(S(=O)(=O)Nc2cccc(Oc3ccc(S(C)(=O)=O)cc3-c3cn(C)c(=O)c4[nH]ccc34)c2)cc1OC` [Example 53], the EC50 in assay [2] was 144 nM.
As for `Cn1cc(-c2cc(S(C)(=O)=O)ccc2NC2CCN(S(=O)(=O)/C=C/c3ccccc3)CC2)c2cc[nH]c2c1=O` [Example 102], the EC50 in assay [2] is 67.3 nM.
On to `Cc1cccc(C)c1Oc1ccc(S(C)(=O)=O)cc1-c1cn(C)c(=O)c2[nH]c(C(=O)NCCCN(C)C3CCCCC3)cc12` [Example 187, N-{3-[cyclohexyl(methyl)amino]propyl}-4-[2-(2,6-dimethylphenoxy)-5-(methylsulfonyl)phenyl]-6-methyl-7-oxo-6,7-dihydro-1H-pyrrolo[2,3-c]pyridine-2-carboxamide], for which the values for the Ki at BRD4 (BDI_K57-E168) and on BRD4 (BDII_E352-M457) were 99.8 nM and 2.52 nM, respectively. The EC50 in assay [3] came out at 290 nM.
Take `CN1CCN(Cc2cc3c(-c4cc(S(C)(=O)=O)ccc4Oc4ccc(F)cc4F)cn(C)c(=O)c3[nH]2)C(c2ccccc2)C1` (centres unmarked) [Example 188, 4-[2-(2,4-difluorophenoxy)-5-(methylsulfonyl)phenyl]-6-methyl-2-[(4-methyl-2-phenylpiperazin-1-yl)methyl]-1,6-dihydro-7H-pyrrolo[2,3-c]pyridin-7-one]: the results for the Ki on BRD4 (BDI_K57-E168) and at BRD4 (BDII_E352-M457) were 1.56 nM and 151 nM, respectively. In assay [3], the EC50 came out at 76.8 nM.

For the origin of these results see patent publication US9957263B2, “Bromodomain inhibitors” (AbbVie Inc., priority 2013, dated 2018).
